Values quoted from earlier work, collected in US20110040266A1, “ANTI-INSOMNIA COMPOSITIONS AND METHODS” (priority 2007, published 2011).

Settings: tablet form; administered from 5 hours to 1 hour before waking

Cc1ccc(-c2nc3ccc(C)cn3c2CC(=O)N(C)C)cc1 [zolpidem, N,N,6-trimethyl-2-p-tolyl-imidazo[1,2-a]pyridine-3-acetamide]
residual effects of night-time dosing: results in residual drowsiness and sleepiness
